From ChEMBL document CHEMBL1157560, “SAR studies on new bis-aryls 5-HT7 ligands: Synthesis and molecular modeling” (Bioorg Med Chem, 2010)

How the values were obtained:
[1] = target: T1, 5-hydroxytryptamine receptor 1A (Rattus norvegicus, UniProt P19327); assay: Displacement of [3H]8-OH-DPAT from 5HT1A receptor in rat hippocampus; type: tissue-based
T1 sequence (P19327 whole entry): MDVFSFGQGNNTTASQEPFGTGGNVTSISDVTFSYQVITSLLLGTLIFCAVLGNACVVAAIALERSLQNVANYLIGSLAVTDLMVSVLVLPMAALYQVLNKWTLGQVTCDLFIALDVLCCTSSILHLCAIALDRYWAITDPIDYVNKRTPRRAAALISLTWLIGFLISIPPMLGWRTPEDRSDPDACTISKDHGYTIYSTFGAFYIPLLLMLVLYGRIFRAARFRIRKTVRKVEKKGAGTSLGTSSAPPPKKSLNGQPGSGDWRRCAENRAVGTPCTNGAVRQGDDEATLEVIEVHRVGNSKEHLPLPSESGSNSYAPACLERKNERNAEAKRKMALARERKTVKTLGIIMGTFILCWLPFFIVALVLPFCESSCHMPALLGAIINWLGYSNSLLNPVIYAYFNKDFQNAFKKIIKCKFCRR

[2] = target: 5-hydroxytryptamine receptor 7 (Homo sapiens, UniProt P34969); assay: Displacement of [3H]5CT from human cloned 5HT7B receptor expressed in HEK293 cells; type: cell-based
Sequence of 5-hydroxytryptamine receptor 7 (P34969 whole entry): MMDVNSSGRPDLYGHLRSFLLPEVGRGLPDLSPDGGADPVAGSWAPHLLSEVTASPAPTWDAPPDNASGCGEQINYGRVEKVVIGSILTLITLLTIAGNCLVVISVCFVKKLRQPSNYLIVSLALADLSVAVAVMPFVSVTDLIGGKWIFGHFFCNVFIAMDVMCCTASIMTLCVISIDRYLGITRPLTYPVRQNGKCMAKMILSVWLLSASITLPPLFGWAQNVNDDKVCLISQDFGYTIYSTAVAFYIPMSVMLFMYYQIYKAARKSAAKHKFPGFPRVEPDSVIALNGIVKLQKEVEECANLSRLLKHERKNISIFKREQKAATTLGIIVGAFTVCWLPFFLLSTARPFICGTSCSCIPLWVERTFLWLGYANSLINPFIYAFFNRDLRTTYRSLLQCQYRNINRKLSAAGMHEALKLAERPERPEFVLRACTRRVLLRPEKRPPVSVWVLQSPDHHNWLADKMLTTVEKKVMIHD

Ki [1] [nM] | Ki [2] [nM] | SMILES
133 | 37 | CN(C)CCSc1cccc(Br)n1
43 | – | CN(C)CCSc1cccc(-c2ccccc2)n1
– | 2.55 | COc1cccc(OC)c1-c1cccc2c1OC[C@H](N(C)C)C2
– | 3.38 | CCCN(CCC)[C@H]1COc2c(cccc2-c2ccccc2)C1
– | 156 | CN(C)CCOc1ccccc1-c1ccccc1
– | 13.4 | Cc1cccc(C)c1-c1ccc2c(c1)C[C@H](N(C)C)CO2
– | 1430 | Cc1cccc(C)c1-c1ccccc1SCCN(C)C
7220 | 1610 | Cc1cccc(C)c1-c1cccc(OCCN(C)C)n1
– | > 10000 | COc1cccc(OC)c1-c1cnnc(CCN(C)C)n1
– | 0.3 | CCCN(CCC)[C@H]1CCc2c(cccc2-c2cccc3ccccc23)C1
927 | 128 | Cc1cccc(C)c1-c1cccc(SCCN(C)C)n1
516 | – | CN(C)CCSc1cccc(-c2ccccc2)c1
– | > 10000 | Cc1cccc(C)c1-c1cnnc(CCN(C)C)n1
2350 | – | Cc1cccc(C)c1-c1cccc(SCCN(C)C)c1
28 | 26 | CN(C)CCSc1cccc(-c2ccoc2)n1
– | 2660 | CN(C)CCOc1ccccc1Br
– | 669 | COc1ccccc1-c1ccccc1OCCN(C)C
– | > 10000 | CN(C)CCc1nncc(-c2ccccc2)n1
– | 553 | CN(C)CCSc1ccccc1-c1ccccc1
– | 1480 | COc1cccc(OC)c1-c1ccnc(CCN(C)C)n1
676 | – | CN(C)CCSc1cccc(Br)c1
– | 4110 | CN(C)CCSc1ccccc1Br

SMILES | Ki [1] [nM] | Ki [2] [nM]
CCCN(CCC)[C@H]1CCc2c(cccc2-c2ccccc2)C1 | – | 2.91
CN(C)CCOc1cccc(Br)n1 | 902 | –
